From paper PMC9792776 (Frontiers in Pharmacology, 2022)

Key:
[1] = molecular target: CYP2C9 (Homo sapiens, UniProt P11712); settings: recombinant enzyme
[2] = molecular target: CYP3A4 (Homo sapiens, UniProt P08684); assay: Intrinsic clearance in human recombinant CYP3A4
[3] = In vitro Caco-2 cell permeability; format: in vitro ADME; settings: human
Description: The first-order absorption model has different absorption rate constants (ka) and fraction available from dosage form (fa) to simulate absorption processes in fasting and fed states. […] Caco-2 (human colorectal adenocarcinoma) cells are used to model the intestinal epithelial barrier. The Simcyp (Version 19.0, Certara Inc., Sheffield, UK) minimal PBPK, which treats all organs other than the intestine and liver as a single compartment ([Rowland Yeo et al., 2010]), was selected, along with a single adjusting compartment (SAC) distribution model. The SAC is a nonphysiologic compartment that permits adjustment to the drug concentration profile in the systemic compartment ([Ke et al., 2016]).

Sequence of CYP3A4 (P08684 whole entry): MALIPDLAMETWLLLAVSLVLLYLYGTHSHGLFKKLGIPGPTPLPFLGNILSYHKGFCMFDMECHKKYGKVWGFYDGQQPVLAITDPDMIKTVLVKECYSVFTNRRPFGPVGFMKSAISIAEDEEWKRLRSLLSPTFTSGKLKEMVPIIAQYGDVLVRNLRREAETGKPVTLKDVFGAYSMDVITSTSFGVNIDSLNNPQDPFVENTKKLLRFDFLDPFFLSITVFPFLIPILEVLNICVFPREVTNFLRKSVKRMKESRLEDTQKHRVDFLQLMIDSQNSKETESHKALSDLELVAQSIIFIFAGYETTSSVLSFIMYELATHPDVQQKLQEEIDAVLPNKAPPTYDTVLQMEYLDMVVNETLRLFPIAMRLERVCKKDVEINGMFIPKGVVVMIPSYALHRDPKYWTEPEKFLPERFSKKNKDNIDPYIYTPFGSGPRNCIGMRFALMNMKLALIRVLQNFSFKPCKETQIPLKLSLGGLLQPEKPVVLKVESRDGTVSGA
Sequence of CYP2C9 (P11712 whole entry): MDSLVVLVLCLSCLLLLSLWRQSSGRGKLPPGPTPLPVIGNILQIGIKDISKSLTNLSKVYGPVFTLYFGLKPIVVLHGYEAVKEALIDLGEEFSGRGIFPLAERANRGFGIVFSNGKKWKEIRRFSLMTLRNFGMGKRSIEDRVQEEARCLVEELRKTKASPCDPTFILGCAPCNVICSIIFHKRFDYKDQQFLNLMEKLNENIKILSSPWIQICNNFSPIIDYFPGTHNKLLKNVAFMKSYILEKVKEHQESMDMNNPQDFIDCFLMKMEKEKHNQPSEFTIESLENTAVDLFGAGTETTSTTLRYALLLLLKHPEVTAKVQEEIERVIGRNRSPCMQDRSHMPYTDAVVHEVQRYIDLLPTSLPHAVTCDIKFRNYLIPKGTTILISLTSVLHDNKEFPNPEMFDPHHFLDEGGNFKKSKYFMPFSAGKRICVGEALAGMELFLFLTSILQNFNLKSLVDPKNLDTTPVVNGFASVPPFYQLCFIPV

**Q.** With `O=C(O)Cc1ccccc1Nc1c(Cl)cccc1Cl` [Diclofenac] as the compound, how does the “CLint CYP2C9” value [1] read?
**A.** Its value is 2.965 µL/min/pmol CYP.

**Q.** With `Cc1ncc2n1-c1ccc(Cl)cc1C(c1ccccc1F)=NC2` [Midazolam, reference compound] as the compound, how does the “CLint CYP3A4” value [2] read?
**A.** The value was 3.083 µL/min/pmol CYP.

**Q.** With `CC(C)NCC(O)COc1cccc2ccccc12` (stereo not drawn) [Propranolol, propranolol, reference compound] as the compound, how does the Papp [3] read?
**A.** Its Papp is 5.68 ×10⁻⁶ cm/s.
